Results on two compounds are retold here after patent US12054498B2, “Heteroaromatic macrocyclic ether chemotherapeutic agents” (Nuvalent, Inc., priority 2020, dated 2024).

Like-named read-outs stand apart in the source and are kept apart here.

For data set [1] the following is noted: cc_pd bond, Pd(OAc)2/cataCXium A, KOAc, 2-methyl-2-butanol, 120.0 °C.
The conditions of data set [2]: from CCn1ccc(C(=O)c2nn(C)nc2-c2ccc(F)cc2[C@@H](C)Oc2cc(Br)cnc2N)c1; cc_pd bond; 12-membered ring; Pd(OAc)2/cataCXium A/KOAc; 2-methyl-2-butanol; 38.0 mM; 120.0 °C.
For data set [3] the following is noted: from Cc1nn(CC2CC2)cc1Cc1nn(C)nc1-c1ccc(F)cc1C(CO[Si](C)(C)C(C)(C)C)Oc1cc(Br)cnc1N; cc_pd bond; 12-membered ring; Pd(OAc)2/cataCXium A/KOAc; 2-methyl-2-butanol; 30.0 mM; 120.0 °C.

In the case of `CCn1ccc2c1-c1cnc(N)c(c1)O[C@H](C)c1cc(F)ccc1-c1nn(C)nc1C2=O`, the ring closure, yield of all isomers in data set [1] (from CCn1ccc(C(=O)c2nn(C)nc2-c2ccc(F)cc2[C@@H](C)Oc2cc(Br)cnc2N)c1, 38.0 mM, 12.0 h) came to 15%. This compound displayed a ring closure, yield after HPLC in data set [2] of 15%.
In turn, `Cc1nn(CC2CC2)c2c1Cc1nn(C)nc1-c1ccc(F)cc1C(CO[Si](C)(C)C(C)(C)C)Oc1cc-2cnc1N` (stereo not shown) displayed a ring closure, yield of all isomers in data set [1] (from Cc1nn(CC2CC2)cc1Cc1nn(C)nc1-c1ccc(F)cc1C(CO[Si](C)(C)C(C)(C)C)Oc1cc(Br)cnc1N, 30.0 mM) of 23%. Moreover, in data set [3], the ring closure, isolated yield came to 23%.
